Data from ChEMBL document CHEMBL4665705 (J Med Chem, 2020).
≈ marks a conversion by molar mass, not a printed value.

Tests used:
[1] = buffer, pH 7.4
physchem = conditions: phosphate buffered saline, pH 7.4
in vitro = conditions: PAMPA, pH 7.4
[2] = biological target: Bromodomain-containing protein 4 (Homo sapiens, UniProt O60885, Y97A)
[3] = biological target: Bromodomain-containing protein 4 (Homo sapiens, UniProt O60885, Y390A)
[4] = Genotoxicity in Salmonella typhimurium TA1535 in absence of S9 fraction by Ames test; format: toxicity; conditions: salmonella enterica subsp. enterica serovar typhimurium
[5] = Genotoxicity in Salmonella typhimurium TA1535 in presence of S9 fraction by Ames test; format: toxicity, subcellular; conditions: salmonella enterica subsp. enterica serovar typhimurium
[6] = Genotoxicity in Salmonella typhimurium TA1537 in absence of S9 fraction by Ames test; format: toxicity; conditions: salmonella enterica subsp. enterica serovar typhimurium
[7] = Genotoxicity in Salmonella typhimurium TA100 in presence of S9 fraction by Ames test; format: toxicity, subcellular; conditions: salmonella enterica subsp. enterica serovar typhimurium
[8] = Genotoxicity in Escherichia coli WP2uvrA in presence of S9 fraction by Ames test; format: toxicity, subcellular
[9] = Genotoxicity in Escherichia coli WP2uvrA in absence of S9 fraction by Ames test; format: toxicity
[10] = Genotoxicity in Salmonella typhimurium TA1537 in presence of S9 fraction by Ames test; format: toxicity, subcellular; conditions: salmonella enterica subsp. enterica serovar typhimurium
[11] = Genotoxicity in Salmonella typhimurium TA100 in absence of S9 fraction by Ames test; format: toxicity; conditions: salmonella enterica subsp. enterica serovar typhimurium
[12] = Genotoxicity in Salmonella typhimurium TA98 in presence of S9 fraction by Ames test; format: toxicity, subcellular; conditions: salmonella enterica subsp. enterica serovar typhimurium
[13] = Genotoxicity in Salmonella typhimurium TA98 in absence of S9 fraction by Ames test; format: toxicity; conditions: salmonella enterica subsp. enterica serovar typhimurium
[14] = Drug metabolism in rat liver S9 fraction assessed as deacetylation to aniline at 10 uM incubated for 120 mins by FTMS analysis; format: ADME, subcellular; conditions: s9, 2 h
[15] = Drug metabolism in human liver S9 fraction assessed as deacetylation to aniline at 10 uM incubated for 120 mins by FTMS analysis; format: ADME, subcellular; conditions: s9, 2 h

| CHI [1] | solubility kinetic (physchem) [µg/mL] | Papp (in vitro) [×10⁻⁶ cm/s] | IC50 [2] [µM] | IC50 [3] [µM] | Structure (SMILES) | also measured |
| --- | --- | --- | --- | --- | --- | --- |
| 3.8 | 159 (≈ 416 µM) | 30 | 12.6 | > 50.1 | CC(=O)Nc1ccc(C(=O)NC2CCOCC2)cc1O[C@H](C)c1ccccc1 | – |
| – | – | – | – | – | Nc1c(O)cc(C(=O)O)cc1F | Activity [4]: Non-Toxic; Activity [5]: Non-Toxic; Activity [6]: Non-Toxic; Activity [7]: Non-Toxic; Activity [8]: Toxic; Activity [9]: Toxic; Activity [10]: Non-Toxic; Activity [11]: Non-Toxic; Activity [12]: Non-Toxic; Activity [13]: Non-Toxic |
| 2.1 | 96 (≈ 255 µM) | 1.1 | – | – | CC(=O)Nc1ccc(C(=O)NCCCN)cc1OCc1cccc(Cl)c1 | – |
| 0 | 151 (≈ 393 µM) | < 0.3 | 10 | > 50.1 | CC(=O)Nc1ccc(C(=O)NCCCN)cc1OCc1ccc(C(N)=O)cc1 | – |
| 2.4 | 109 (≈ 318 µM) | 9.4 | 3.98 | > 50.1 | CC(=O)Nc1ccc(C(=O)NCCCO)cc1OCc1ccccc1 | – |
| 4 | 200 (≈ 504 µM) | 10.4 | 1.58 | > 50.1 | CC(=O)Nc1ccc(C(=O)NCCC2CCOCC2)cc1OCc1ccccc1 | – |
| 2.7 | 174 (≈ 455 µM) | 7.9 | 1.26 | > 50.1 | CC(=O)Nc1ccc(C(=O)N[C@H]2CC[C@H](O)CC2)cc1OCc1ccccc1 | – |
| 3.3 | 155 (≈ 421 µM) | 19 | 2 | > 50.1 | CC(=O)Nc1ccc(C(=O)NC2CCOCC2)cc1OCc1ccccc1 | – |
| 1.7 | < 3 | 17 | 0.794 | > 50.1 | CC(=O)Nc1ccc(C(=O)NCC2CCNCC2)cc1OCc1ccccc1 | – |
| 0.2 | 130 (≈ 380 µM) | < 0.3 | 15.8 | > 50.1 | CC(=O)Nc1ccc(C(=O)NCCCN)cc1OCc1cccnc1 | – |
| 2.2 | 108 (≈ 287 µM) | < 0.3 | 2 | 25.1 | CC(=O)Nc1ccc(C(=O)NCCCN)cc1OCc1ccc(Cl)cc1 | – |
| 1.9 | 124 (≈ 330 µM) | 1.5 | 2.51 | 39.8 | CC(=O)Nc1ccc(C(=O)NCCCN)cc1OCc1ccccc1Cl | – |
| 2.3 | 162 (≈ 493 µM) | 6.8 | 5.01 | > 50.1 | CC(=O)Nc1ccc(C(=O)NCCO)cc1OCc1ccccc1 | – |
| 4.4 | 159 (≈ 481 µM) | 67 | 1.58 | > 50.1 | CCNC(=O)c1cc(OCc2ccccc2)c(NC(C)=O)cc1F | – |
| 1.3 | 114 (≈ 307 µM) | < 0.3 | 2.51 | 39.8 | COc1ccc(COc2cc(C(=O)NCCCN)ccc2NC(C)=O)cc1 | – |
| 3.1 | 114 (≈ 297 µM) | 0.77 | – | – | CC(=O)Nc1ccc(C(=O)NCCCN)cc1OCc1ccc(C(C)C)cc1 | – |

| CHI [1] | solubility kinetic (physchem) [µg/mL] | Papp (in vitro) [×10⁻⁶ cm/s] | IC50 [2] [µM] | IC50 [3] [µM] | Structure (SMILES) | also measured |
| --- | --- | --- | --- | --- | --- | --- |
| 1.6 | 123 (≈ 360 µM) | < 0.3 | 1.58 | 31.6 | CC(=O)Nc1ccc(C(=O)NCCCN)cc1OCc1ccccc1 | – |
| 3.1 | 170 (≈ 429 µM) | 9.3 | 0.158 | 39.8 | CC(=O)Nc1ccc(C(=O)N[C@H]2CC[C@H](O)CC2)cc1O[C@@H](C)c1ccccc1 | – |
| 3.5 | 143 (≈ 458 µM) | 32 | 6.31 | > 50.1 | CCNC(=O)c1ccc(NC(C)=O)c(OCc2ccccc2)c1 | – |
| – | – | – | – | – | C[C@H](Oc1cc(C(=O)N[C@H]2CC[C@H](O)CC2)ccc1N)c1ccccc1 | Activity [4]: Non-Toxic; Activity [5]: Non-Toxic; Activity [6]: Non-Toxic; Activity [7]: Non-Toxic; Activity [8]: Non-Toxic; Activity [9]: Non-Toxic; Activity [10]: Non-Toxic; Activity [11]: Non-Toxic; Activity [12]: Non-Toxic; Activity [13]: Non-Toxic |
| 0.1 | 112 (≈ 327 µM) | 0.3 | – | – | CC(=O)Nc1ccc(C(=O)NCCCN)cc1OCc1ccncc1 | – |
| 4.9 | 113 (≈ 468 µM) | 78 | – | – | CC(=O)Nc1ccccc1OCc1ccccc1 | – |
| 0.4 | 144 (≈ 412 µM) | < 0.3 | > 50.1 | > 50.1 | CC(=O)Nc1ccc(C(=O)NCCCN)cc1OCC1CCOCC1 | – |
| 0.3 | 80 (≈ 234 µM) | < 0.3 | 10 | > 50.1 | CC(=O)Nc1ccc(C(=O)NCCCN)cc1OCc1ccccn1 | – |
| 3.1 | 18 (≈ 54.5 µM) | 11 | 1 | > 50.1 | CCNC(=O)c1cc(F)c(NC(C)=O)c(OCc2ccccc2)c1 | – |
| 3.5 | 174 (≈ 455 µM) | 19 | 2.51 | > 50.1 | CC(=O)Nc1ccc(C(=O)NCC2CCOCC2)cc1OCc1ccccc1 | – |
| 2.2 | 125 (≈ 330 µM) | 0.8 | – | – | CC(=O)Nc1ccc(C(=O)NCCc2cnc[nH]2)cc1OCc1ccccc1 | – |
| 2.5 | 119 (≈ 360 µM) | 46 | 20 | > 50.1 | CCNC(=O)c1ccc(NC(C)=O)c(OCc2ccccc2)c1F | – |
| 3.7 | 215 (≈ 562 µM) | 34 | 0.251 | 31.6 | CC(=O)Nc1ccc(C(=O)NC2CCOCC2)cc1O[C@@H](C)c1ccccc1 | Drug metabolism [14]: Metabolite_Detected; Drug metabolism [15]: Metabolite_Detected |
| 2 | 114 (≈ 321 µM) | 0.65 | 2 | 31.6 | CC(=O)Nc1ccc(C(=O)NCCCN)cc1OCc1ccc(C)cc1 | – |
| 1.7 | 159 (≈ 447 µM) | < 0.3 | 0.501 | 20 | CC(=O)Nc1ccc(C(=O)NCCCN)cc1OC(C)c1ccccc1 (racemic) | – |
